For 19 molecules, IC50 results are on record in US11464770B2, “Anticancer pharmaceutical composition” (NATIONAL CANCER CENTER, priority 2016, dated 2022).

For assay [1], the system named is bladder cancer cell lines. Description: Cell based assay, cell viability (CellTiter-Glo), bladder cancer cell lines. Put shortly:
(§1)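 Viability measured by ATP luminescence following 72 h treatment over a 0–2 μM final concentration range.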
For orientation: In ATP-based viability assays light output follows the ATP content of the culture.

Assay [2] concerns melanoma cell lines. Description: Cell based assay, cell viability (CellTiter-Glo), melanoma cell lines. To be noted: Homo sapiens; LOX-IMVI cell line. An outline of the steps: as §1
Assay [3] relates to liver cancer cell lines. Description: Cell based assay, cell viability (CellTiter-Glo), liver cancer cell lines. The following applies: Homo sapiens, SK-HEP1; SK-HEP-1 cell line. Put shortly:
as §1

Where [4] appears, read: 5637 cells, 72 hours treatment, 0 to 2 μM, CellTiter-Glo, read-out: IC50, bladder cancer cell line 5637.
[5] abbreviates: Homo sapiens, T-24, T24 cells, 72 hours treatment, 0 to 2 μM, CellTiter-Glo, read-out: IC50, bladder cancer cell line T24.
Where [6] appears, read: Homo sapiens, J82 cells, 72 hours treatment, 0 to 2 μM, CellTiter-Glo, read-out: IC50, bladder cancer cell line J82.
Setting [7] is: 253J cells, 72 hours treatment, 0 to 2 μM, CellTiter-Glo, read-out: IC50, bladder cancer cell line 253J.
Setting [8] is: Homo sapiens, UMUC3, UM-UC-3 cells, 72 hours treatment, 0 to 2 μM, CellTiter-Glo, read-out: IC50, bladder cancer cell line UM-UC-3.
Setting [9] is: Homo sapiens, KU-19-19 cells, 72 hours treatment, 0 to 2 μM, CellTiter-Glo, read-out: IC50, bladder cancer cell line KU-19-19.
Setting [10] is: MBT-2 cells, 72 hours treatment, 0 to 2 μM, CellTiter-Glo, read-out: IC50, bladder cancer cell line MBT-2.

Where two headings read alike, the source gives them in different places.

As for `CC(=O)c1c([S+]([O-])Cc2ccc(Cl)nc2)[nH]c2c(Br)ccc(Cl)c2c1=O` (stereo not shown) [Compound 104, 3-acetyl-8-bromo-5-chloro-2-(((6-chloropyridin-3-yl)methyl)sulfinyl)quinolin-4(1H)-one], the IC50 in assay [1] (setting [4]) was more than 2000 nM; in assay [1] (setting [5]) it was 1030 nM; in assay [1] (setting [6]) it was more than 2000 nM; in assay [2] it was 880 nM; in assay [3], 1500 nM.

Regarding `O=C(c1c([S+]([O-])Cc2ccc(SC(F)(F)F)cc2)[nH]c2c(Br)ccc(Cl)c2c1=O)C1CC1` (stereo not shown) [Compound 101, 8-bromo-5-chloro-3-(cyclopropanecarbonyl)-2-((4-((trifluoromethyl)thio)benzyl)sulfinyl)quinolin-4(1H)-one], the IC50 in assay [1] (setting [4]), in assay [1] (setting [5]), in assay [1] (setting [6]), in assay [2] and in assay [3] was more than 2000 nM throughout.

On to `CC(=O)c1c(SCc2cccc(C#N)c2)[nH]c2c(Br)ccc(Cl)c2c1=O` [Compound 27, 3-(((3-acetyl-8-bromo-5-chloro-4-oxo-1,4-dihydroquinolin-2-yl)thio)methyl)benzonitrile], for which the concentration for half-maximal inhibition (IC50) in assay [1] (setting [7]), in assay [1] (setting [4]), in assay [1] (setting [5]), in assay [1] (setting [8]), in assay [1] (setting [6]) and in assay [1] (setting [9]) was more than 2000 nM throughout. For the same molecule, the IC50 in assay [1] (setting [10]), in assay [2] and in assay [3] was more than 2000 nM each time.

Take `CC(=O)c1c([S+](C)[O-])n(S(=O)(=O)c2ccc(C(C)(C)C)cc2)c2c(Br)ccc(Cl)c2c1=O` (stereo not shown) [Compound 42, 3-acetyl-8-bromo-1-((4-(tert-butyl)phenyl)sulfonyl)-5-chloro-2-(methylsulfinyl)quinolin-4(1H)-one]: the concentration for half-maximal inhibition (IC50) was more than 2000 nM in assay [1] (setting [7]); more than 2000 nM in assay [1] (setting [4]); more than 2000 nM in assay [1] (setting [5]); 1890 nM in assay [1] (setting [8]); more than 2000 nM in assay [1] (setting [6]); more than 2000 nM in assay [1] (setting [9]). The IC50 in assay [1] (setting [10]), in assay [2] and in assay [3] was more than 2000 nM throughout.

As to `CC(=O)c1c([S+]([O-])C(C)C)[nH]c2c(Br)ccc(Cl)c2c1=O` (stereo not shown) [Compound 25, 3-acetyl-8-bromo-5-chloro-2-(isopropylsulfinyl)quinolin-4(1H)-one], the IC50 in assay [1] (setting [7]), in assay [1] (setting [4]), in assay [1] (setting [5]), in assay [1] (setting [8]), in assay [1] (setting [6]) and in assay [1] (setting [9]) was more than 2000 nM each time. In addition, the IC50 in assay [1] (setting [10]), in assay [2] and in assay [3] was more than 2000 nM in each case.

With `CC(=O)c1c([S+](C)[O-])[nH]c2c(Br)ccc(Cl)c2c1=O` (stereo not shown) [Compound 1, 3-acetyl-8-bromo-5-chloro-2-(methylsulfinyl)quinolin-4(1H)-one], the concentration for half-maximal inhibition (IC50) is 1350 nM in assay [1] (setting [7]); 1670 nM in assay [1] (setting [4]); 1340 nM in assay [1] (setting [5]); 1510 nM in assay [1] (setting [8]); more than 2000 nM in assay [1] (setting [6]); 1940 nM in assay [1] (setting [9]). Also, the values for the half-inhibitory concentration (IC50) in assay [1] (setting [10]), in assay [2] and in assay [3] were 1190 nM, 1500 nM and 1230 nM, respectively.

For the molecule `CSc1c(C(C)=O)c(=O)c2c(Cl)ccc(Br)c2n1C` [Compound 5, 3-acetyl-8-bromo-5-chloro-1-methyl-2-(methylthio)quinolin-4(1H)-one], the IC50 in assay [1] (setting [7]), in assay [1] (setting [4]), in assay [1] (setting [5]), in assay [1] (setting [8]), in assay [1] (setting [6]) and in assay [1] (setting [9]) was more than 2000 nM each time. Also, the IC50 in assay [1] (setting [10]), in assay [2] and in assay [3] was more than 2000 nM each time.

`CC(=O)c1c([S+](C)[O-])n(C(C)=O)c2c(Br)ccc(Cl)c2c1=O` (stereo not shown) [Compound 19, 1,1′-(8-bromo-5-chloro-2-(methylsulfinyl)-4-oxoquinoline-1,3(4H)-diyl)bis(ethan-1-one)]: the IC50 in assay [1] (setting [7]), in assay [1] (setting [4]), in assay [1] (setting [5]), in assay [1] (setting [8]), in assay [1] (setting [6]) and in assay [1] (setting [9]) was more than 2000 nM throughout. Moreover, the half-maximal inhibitory concentration (IC50) in assay [1] (setting [10]), in assay [2] and in assay [3] was more than 2000 nM each time.

For the molecule `CSc1c(C(C)=O)c(=O)c2c(Cl)ccc(Br)c2n1C(C)=O` [Compound 18, 1,1′-(8-bromo-5-chloro-2-(methylthio)-4-oxoquinoline-1,3(4H)-diyl)bis(ethan-1-one)], the IC50 in assay [1] (setting [7]), in assay [1] (setting [4]), in assay [1] (setting [5]), in assay [1] (setting [8]), in assay [1] (setting [6]) and in assay [1] (setting [9]) was more than 2000 nM in each case. In addition, the IC50 in assay [1] (setting [10]), in assay [2] and in assay [3] was more than 2000 nM each time.

In the case of `CCS(=O)(=O)n1c([S+](C)[O-])c(C(C)=O)c(=O)c2c(Cl)ccc(Br)c21` (stereo not shown) [Compound 39, 3-acetyl-8-bromo-5-chloro-1-(ethylsulfonyl)-2-(methylsulfinyl)quinolin-4(1H)-one], the IC50 in assay [1] (setting [7]), in assay [1] (setting [4]), in assay [1] (setting [5]), in assay [1] (setting [8]), in assay [1] (setting [6]) and in assay [1] (setting [9]) was more than 2000 nM each time. For the same molecule, the IC50 in assay [1] (setting [10]), in assay [2] and in assay [3] was more than 2000 nM each time.

Regarding `CC(=O)c1c(SCc2ccc(Cl)cc2)[nH]c2c(Br)ccc(Cl)c2c1=O` [Compound 10, 3-acetyl-8-bromo-5-chloro-2-((4-chlorobenzyl)thio)quinolin-4(1H)-one], the half-inhibitory concentration (IC50) in assay [1] (setting [7]), in assay [1] (setting [4]), in assay [1] (setting [5]), in assay [1] (setting [8]), in assay [1] (setting [6]) and in assay [1] (setting [9]) was more than 2000 nM throughout. The 50% inhibitory concentration (IC50) in assay [1] (setting [10]), in assay [2] and in assay [3] was more than 2000 nM in each case.

Consider `CC(=O)c1c([S+]([O-])Cc2ccc(S(F)(F)(F)(F)F)cc2)[nH]c2c(F)ccc(F)c2c1=O` (stereo not shown) [Compound 80, 3-acetyl-5,8-difluoro-2-((4-(pentafluoro--sulfanyl)benzyl)sulfinyl)quinolin-4(1H)-one], for which the IC50 in assay [1] (setting [7]), in assay [1] (setting [4]), in assay [1] (setting [5]), in assay [1] (setting [6]), in assay [2] and in assay [3] was more than 2000 nM each time.

`CC(=O)c1c([S+]([O-])Cc2cnc3[nH]ccc3c2)[nH]c2c(Br)ccc(Cl)c2c1=O` (stereo not shown) [Compound 107, 2-(((1H-pyrrolo[2,3-b]pyridin-5-yl)methyl)sulfinyl)-3-acetyl-8-bromo-5-chloroquinolin-4(1H)-one]: the concentration for half-maximal inhibition (IC50) is more than 2000 nM in assay [1] (253J cells, 72 hours, cell viability (CellTiter-Glo), read-out: IC50, 253J bladder cancer cell line); more than 2000 nM in assay [1] (5637 cells, 72 hours, cell viability (CellTiter-Glo), read-out: IC50, 5637 bladder cancer cell line); more than 2000 nM in assay [1] (Homo sapiens, T-24, T24 cells, 72 hours, cell viability (CellTiter-Glo), read-out: IC50, T24 bladder cancer cell line); more than 2000 nM in assay [1] (Homo sapiens, J82 cells, 72 hours, cell viability (CellTiter-Glo), read-out: IC50, J82 bladder cancer cell line); more than 2000 nM in assay [2]; more than 2000 nM in assay [3].

With `COC(=O)c1ccc(C[S+]([O-])c2[nH]c3c(Cl)ccc(Cl)c3c(=O)c2C(C)=O)cc1` (stereo not shown) [Compound 91, methyl 4-(((3-acetyl-5,8-dichloro-4-oxo-1,4-dihydroquinolin-2-yl)sulfinyl)methyl)benzoate], the IC50 in assay [1] (setting [7]) was more than 2000 nM; in assay [1] (setting [4]), more than 2000 nM; in assay [1] (setting [5]), more than 2000 nM; in assay [1] (setting [6]), more than 2000 nM; in assay [2], more than 2000 nM; in assay [3] it was 1720 nM.

As for `CSc1c(C(C)=O)c(=O)c2c(Cl)ccc(Br)c2n1S(=O)(=O)c1ccc(Cl)cc1` [Compound 37, 3-acetyl-8-bromo-5-chloro-1-((4-chlorophenyl)sulfonyl)-2-(methylthio)quinolin-4(1H)-one], the IC50 in assay [1] (setting [7]), in assay [1] (setting [4]), in assay [1] (setting [5]), in assay [1] (setting [8]), in assay [1] (setting [6]) and in assay [1] (setting [9]) was more than 2000 nM throughout. In addition, the IC50 in assay [1] (setting [10]), in assay [2] and in assay [3] was more than 2000 nM in each case.

In the case of `CC(=O)c1c(SCc2ccc(F)c(Cl)c2)[nH]c2c(Br)ccc(Cl)c2c1=O` [Compound 30, 3-acetyl-8-bromo-5-chloro-2-((3-chloro-4-fluorobenzyl)thio)quinolin-4(1H)-one], the IC50 in assay [1] (setting [7]), in assay [1] (setting [4]), in assay [1] (setting [5]), in assay [1] (setting [8]), in assay [1] (setting [6]) and in assay [1] (setting [9]) was more than 2000 nM each time. Moreover, the IC50 in assay [1] (setting [10]), in assay [2] and in assay [3] was more than 2000 nM in each case.

As to `CC(=O)c1c([S+](C)[O-])n(C(=O)c2ccc(Br)cc2)c2c(Br)ccc(Cl)c2c1=O` (stereo not shown) [Compound 9, 3-acetyl-8-bromo-1-(4-bromobenzoyl)-5-chloro-2-(methylsulfinyl)quinolin-4(1H)-one], the IC50 in assay [1] (setting [7]) is 1100 nM; in assay [1] (setting [4]), 1630 nM; in assay [1] (setting [5]) it was 1160 nM; in assay [1] (setting [8]) it was 1180 nM; in assay [1] (setting [6]), more than 2000 nM; in assay [1] (setting [9]), 1970 nM. The IC50 in assay [1] (setting [10]) was 1200 nM; in assay [2], 1050 nM; in assay [3], 990 nM.

In the case of `CC(=O)c1c([S+]([O-])Cc2ccccc2C#N)[nH]c2c(Br)ccc(Cl)c2c1=O` (stereo not shown) [Compound 58, 2-(((3-acetyl-8-bromo-5-chloro-4-oxo-1,4-dihydroquinolin-2-yl)sulfinyl)methyl)benzonitrile], the concentration for half-maximal inhibition (IC50) is 920 nM in assay [1] (setting [7]); more than 2000 nM in assay [1] (setting [4]); 820 nM in assay [1] (setting [5]); more than 2000 nM in assay [1] (setting [6]); 880 nM in assay [2]; 780 nM in assay [3].

As for `CC(=O)c1c([S+]([O-])Cc2ccccc2)n(C(=O)c2ccc(Br)cc2)c2c(Br)ccc(Cl)c2c1=O` (stereo not shown) [Compound 20, 3-acetyl-2-(benzylsulfinyl)-8-bromo-1-(4-bromobenzoyl)-5-chloroquinolin-4(1H)-one], the IC50 in assay [1] (setting [7]), in assay [1] (setting [4]), in assay [1] (setting [5]), in assay [1] (setting [8]), in assay [1] (setting [6]) and in assay [1] (setting [9]) was more than 2000 nM in each case. For the same molecule, the IC50 in assay [1] (setting [10]), in assay [2] and in assay [3] was more than 2000 nM in each case.

Broadly, the IC50 is the midpoint of a concentration-inhibition curve.
